In assay [1] the test system is K+ current in rat brain neurons. On the set-up: method as in Bailey et al. [2009]. The note with it: ref Bailey et al. [2009], read-out: EC50 for activation of the K+ current; cited from earlier work.
Another assay addresses human NOPr (Homo sapiens, UniProt P41146). Nature of the assay: Antagonism of nociceptin-stimulated [35S]GTPγS binding, CHO membranes overexpressing NOPr (SPA, antagonist mode). The format is biochemical.
For assay [2], the target named is T1, MOPr (Homo sapiens, UniProt P35372). Nature of the assay: Antagonism of Met-Enk-stimulated [35S]GTPγS binding, CHO membranes overexpressing MOPr (SPA, antagonist mode). The format is biochemical.
Assay [3] concerns the target T1, MOPr. Nature of the assay: Basal [35S]GTPγS binding, CHO membranes overexpressing MOPr (agonist mode). The format is biochemical.
In a further assay the target is human DOPr (Homo sapiens, UniProt P41143). Description: Antagonism of Met-Enk-stimulated [35S]GTPγS binding, CHO membranes overexpressing DOPr (SPA, antagonist mode). The format is biochemical.
For the next assay, the system named is cocaine seeking. Set-up: method as in Giuliano et al. [2013]. Particulars: ref Giuliano et al. [2013]; cited from earlier work.
The target of assay [4] is T1, MOPr. Description: [3H]naloxone competition displacement binding, MOPr-HEK293 membranes.
Assay [5] addresses T1, MOPr. Nature of the assay: Basal [35S]GTPγS binding, membranes from CHO cells expressing a low level of MOPr. The format is biochemical. Particulars: 1 μM, CHO MOPr approximately 70 fmol per milligram of protein.
The next assay has as its target human KOPr (Homo sapiens, UniProt P41145). Nature of the assay: Antagonism of dynorphin-stimulated [35S]GTPγS binding, CHO membranes overexpressing KOPr (SPA, antagonist mode). In kind it is biochemical.
Another assay concerns heroin seeking. Set-up: method as in Giuliano et al. [2013]. Particulars: ref Giuliano et al. [2013]; cited from earlier work.
Assay [6] concerns the target T1, MOPr. Nature of the assay: [3H]naloxone dissociation kinetics from MOPr, MOPr-HEK293 membranes. In kind it is binding. The note with it: drug 1 μM.
Assay [7] addresses MOPr in mouse brain membranes (Mus musculus, UniProt P42866). Description: Basal [35S]GTPγS binding, whole mouse brain membranes (naive or morphine-pretreated mice). The format is biochemical. The note with it: 1 μM.
The mark [8] stands for this setting: from fpKi, GTPγS antagonist mode.

This is an account of results in PMC4281354, “The opioid receptor pharmacology of GSK1521498 compared to other ligands with differential effects on compulsive reward-related behaviours” (Psychopharmacology, 2014).

Molecules are shown by their SMILES. Counter-ions that a name gives are not always drawn. Like-named read-outs stand apart in the source and are kept apart here.

Chain of MOPr in mouse brain membranes (P42866 whole entry): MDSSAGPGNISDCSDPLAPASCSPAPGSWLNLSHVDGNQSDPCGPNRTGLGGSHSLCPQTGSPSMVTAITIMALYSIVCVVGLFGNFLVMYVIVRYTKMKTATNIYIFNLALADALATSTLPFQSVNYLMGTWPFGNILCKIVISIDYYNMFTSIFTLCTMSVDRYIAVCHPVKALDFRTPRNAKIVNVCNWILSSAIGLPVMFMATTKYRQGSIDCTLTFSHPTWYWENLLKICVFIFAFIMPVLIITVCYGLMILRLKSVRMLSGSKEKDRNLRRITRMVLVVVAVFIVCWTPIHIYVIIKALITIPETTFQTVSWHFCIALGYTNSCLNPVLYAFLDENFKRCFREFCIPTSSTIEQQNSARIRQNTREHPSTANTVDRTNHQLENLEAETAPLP
Chain of human NOPr (P41146 whole entry): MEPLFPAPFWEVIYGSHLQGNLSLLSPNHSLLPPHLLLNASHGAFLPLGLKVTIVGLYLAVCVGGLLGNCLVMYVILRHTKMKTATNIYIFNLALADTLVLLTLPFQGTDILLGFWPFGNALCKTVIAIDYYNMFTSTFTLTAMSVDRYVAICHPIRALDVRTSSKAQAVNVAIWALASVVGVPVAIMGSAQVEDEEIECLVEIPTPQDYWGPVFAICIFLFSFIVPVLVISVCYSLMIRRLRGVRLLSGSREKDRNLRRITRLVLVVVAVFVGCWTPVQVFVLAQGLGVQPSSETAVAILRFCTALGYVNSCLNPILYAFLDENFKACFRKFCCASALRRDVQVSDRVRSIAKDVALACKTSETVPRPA
T1 sequence (P35372 whole entry): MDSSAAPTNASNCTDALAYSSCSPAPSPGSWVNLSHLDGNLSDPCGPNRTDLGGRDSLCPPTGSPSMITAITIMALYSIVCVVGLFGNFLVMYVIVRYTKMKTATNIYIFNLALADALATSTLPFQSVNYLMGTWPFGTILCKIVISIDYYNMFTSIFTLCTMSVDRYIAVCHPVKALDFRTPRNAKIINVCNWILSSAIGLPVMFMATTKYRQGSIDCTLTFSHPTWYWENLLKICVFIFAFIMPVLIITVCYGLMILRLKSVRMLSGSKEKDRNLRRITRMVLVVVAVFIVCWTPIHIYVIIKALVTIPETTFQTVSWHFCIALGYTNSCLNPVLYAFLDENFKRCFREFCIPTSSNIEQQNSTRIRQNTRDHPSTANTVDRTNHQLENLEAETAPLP
Chain of human KOPr (P41145 whole entry): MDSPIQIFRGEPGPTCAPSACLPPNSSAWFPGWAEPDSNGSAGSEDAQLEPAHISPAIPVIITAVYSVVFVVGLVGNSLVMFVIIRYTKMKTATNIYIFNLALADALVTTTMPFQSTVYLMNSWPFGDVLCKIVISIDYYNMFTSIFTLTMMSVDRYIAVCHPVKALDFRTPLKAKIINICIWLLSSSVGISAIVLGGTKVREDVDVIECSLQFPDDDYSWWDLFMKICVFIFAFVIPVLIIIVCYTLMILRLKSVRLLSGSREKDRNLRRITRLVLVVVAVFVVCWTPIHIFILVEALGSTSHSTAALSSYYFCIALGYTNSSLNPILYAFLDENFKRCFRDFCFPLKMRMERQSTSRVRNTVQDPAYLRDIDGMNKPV
Chain of human DOPr (P41143 whole entry): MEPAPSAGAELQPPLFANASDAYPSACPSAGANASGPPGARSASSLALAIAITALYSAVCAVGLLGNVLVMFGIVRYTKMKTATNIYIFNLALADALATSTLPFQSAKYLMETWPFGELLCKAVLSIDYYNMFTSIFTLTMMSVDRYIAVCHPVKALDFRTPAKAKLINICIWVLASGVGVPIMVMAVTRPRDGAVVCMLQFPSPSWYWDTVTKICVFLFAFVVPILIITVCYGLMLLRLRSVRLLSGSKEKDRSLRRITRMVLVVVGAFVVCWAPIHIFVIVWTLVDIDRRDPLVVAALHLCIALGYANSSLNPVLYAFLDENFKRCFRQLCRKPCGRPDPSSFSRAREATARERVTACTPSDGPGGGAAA

Take `CSCC[C@H](NC(=O)[C@H](Cc1ccccc1)NC(=O)CNC(=O)CNC(=O)[C@@H](N)Cc1ccc(O)cc1)C(=O)O` [Met-Enk, methionine enkephalin acetate salt hydrate]: the EC50 in [1] is 1000 nM.
As to `Oc1ccc2c3c1O[C@H]1[C@H](O)CC[C@@]4(O)[C@@H](C2)N(CC2CC2)CC[C@]314` [6β-Naltrexol, 6-β-naltrexol], the “Antagonist potency (fpKi) NOPr” value on human NOPr (vs nociceptin, CHO cells overexpressing NOPr, mean ± SEM of three experiments) is reported as less than 5.
Regarding `C=C1CC[C@@]2(O)[C@H]3Cc4ccc(O)c5c4[C@@]2(CCN3CC2CC2)[C@H]1O5` [Nalmefene, nalmefene, reference compound], the “completeness of inhibition of the agonist response at MOPr” value on MOPr [2] was “did not produce complete inhibition”. Besides, at MOPr [3], the “enhancement of basal [35S]GTPγS binding” value amounted to 20%. Further, at human NOPr, the Ki is greater than 10000 nM.
`Fc1cc(-c2cccc(-c3nc[nH]n3)c2)cc(F)c1CNC1Cc2ccccc2C1.O=P(O)(O)O` [GSK1521498, N-{[3,5-difluoro-3′-(1H-1,2,4-triazol-3-yl)-4-biphenylyl]methyl}-2,3-dihydro-1H-inden-2-amine phosphate (1:1)]: on MOPr [2] (Met-Enk-stimulated GTPγS binding, CHO overexpressing MOPr), the “completeness of inhibition of the agonist response at MOPr” value is given as “completely antagonize”. The Ki was 0.229 nM at MOPr [2] (vs Met-Enk, CHO cells overexpressing MOPr, mean ± SEM of three experiments, read-out: Antagonist potency (fpKi) MOPr (converted)); 3.16 nM at human DOPr (vs Met-Enk, CHO cells overexpressing DOPr, mean ± SEM of three experiments, read-out: Antagonist potency (fpKi) DOPr (converted)); 0.417 nM on MOPr [4] (read-out: Affinity of binding (pKi) to MOPr (converted)); 3.31 nM on human KOPr (vs dynorphin, CHO cells overexpressing KOPr, mean ± SEM of three experiments, read-out: Antagonist potency (fpKi) KOPr (converted)); 257 nM at human NOPr (vs nociceptin, CHO cells overexpressing NOPr, mean ± SEM of three experiments, read-out: Antagonist potency (fpKi) NOPr (converted)). Besides, at human DOPr (setting [8]), the “selectivity for MOPr over DOPr” value amounted to 14 fold. The “greater reduction in cocaine seeking compared to naltrexone 3 mg/kg” value in the assay with cocaine seeking is 2.5 fold. Moreover, at MOPr [4] (HEK293 MOPr membranes), the “maximum displacement of specific 3H-naloxone binding” value was 100%. In addition, the “inhibition of basal [35S]GTPγS binding” value on MOPr [3] (CHO membranes highly overexpressing MOPr (Bmax 14,500 fmol/mg protein)) is recorded as “up to 18%”. For the same compound, the “agonist activity when administered alone” value at MOPr [3] (at any of the opioid receptors, concentrations up to 100 μM) was “did not show agonist activity”. For the same compound, the “concentrations producing a significant inhibition of basal [35S]GTPγS binding” value at MOPr [3] (p < 0.001, ANOVA) was “greater than 0.4 nM”. Besides, the “effect on basal level of GTPγS binding” value at MOPr [5] was “did not modify”. In addition, the “selectivity for MOPr over KOPr” value on human KOPr (setting [8]) turned out to be 14 fold. For the same compound, in the assay with heroin seeking, the “greater reduction in heroin seeking compared to naltrexone 3 mg/kg” value is recorded as 5.5 fold. Besides, the “rate of 3H-naloxone dissociation in the presence of drug” value at MOPr [6] is reported as “unchanged”. The “effect on basal [35S]GTPγS binding, naïve mice” value in [7] (brain membranes from naïve mice) is given as “did not reduce”. Besides, the “effect on basal [35S]GTPγS binding, severe morphine pre-treatment” value in assay [7] (brain membranes, 75 mg morphine pellet sc 3 days) was “very slight but statistically significant inhibition”. Besides, the “effect on basal [35S]GTPγS binding, acute morphine pre-treatment” value in assay [7] (brain membranes, morphine 100 mg/kg sc 4 h before sacrifice) was “did not reduce”. For the same compound, the “effect on basal [35S]GTPγS binding, moderate morphine pre-treatment” value in assay [7] (brain membranes, sc morphine at 8-h intervals for 3 days) was “did not reduce”.
